{
  "source": "patent US11542515B2",
  "about": "“Methods and compositions for increasing efficiency of targeted gene modification using oligonucleotide-mediated gene repair” (CIBUS US LLC, priority 2016, dated 2023)",
  "molecules": {"B1": {"name": "GRON (SEQ ID NO: 79): Cy3/idC GRON targeting the rice accase gene, Example 21 (nucleic acid)", "chain": "CTGACCTGAACTTGATCTCAATTAACCCTTGCGGTTCCAGAACATTGCCTTTTGCAGTCCTCTCAGCATAGCACTCAATGCGGTCTGGGTTTATCTTGCTTCCAACGACAACCCAAGCCCCTCCTCGTAGCTCTGCAGCCATGGGAATGTAGACAAAGGCAGGCTGATTGTATGTCCTAAGGTTCTCAACAATAGTCGAGCC", "modifications": "Cy3 label and idC cap; 5′ CY3/ 3′ 3′DMT dC CPG"}},
  "key": {"flax calli": {"test_system": "flax calli", "experiment": "Glyphosate tolerance of flax calli (fresh weight)", "type": "cell-based, Linum usitatissimum", "conditions": "edited callus line Y23 / A23, all glyphosate concentrations tested, p<0.01", "description": "(§1) Glyphosate tolerance of calli and regenerated plants was assessed in vitro and in the greenhouse, respectively. Individual calli were cloned by cutting and culturing smaller pieces in fresh regeneration medium to increase callus mass. Calli derived from wild type leaf protoplasts were used as negative control. Calli derived from subcultures of individual callus lines were then pooled and broken up into 0.5-1 mm pieces by blending in liquid MS medium (4.33 g/L MS salts, 3% sucrose and 0.1% Morel and Wetmore vitamins) and 0.25 ml of settled callus pieces was inoculated on regeneration medium containing 0, 0.125, 0.25, 0.5, 1.0 or 2.0 mM glyphosate. Treatments were performed in triplicate, and the experiments were repeated three times. Prior to spray tests, regenerated plants were subjected to a hardening period in a growth chamber (Conviron, Winnipeg, MB) under a 16-h photoperiod with day and night temperatures 21° C. and 18° C. respectively. Hardened plants were transferred to the greenhouse for glyphosate treatment. Wild type control and EPSPS edited plants were sprayed with 10.5 mM or 21.0 mM glyphosate (Roundup Pro, Monsanto). Treatment rates were normalized to a 75.7 ai/A (active ingredient per acre) spray volume to replicate field conditions. […] Plants were evaluated and photographed 6 days after the glyphosate treatment to determine herbicide tolerance. […]"}, "flax plants": {"test_system": "flax plants", "experiment": "Glyphosate spray test of regenerated flax plants in the greenhouse", "type": "in vivo, Linum usitatissimum", "conditions": "10.5 or 21.0 mM spray, 6 days after treatment", "description": "as §1"}, "[1]": {"test_system": "blue fluorescent protein (BFP) gene", "experiment": "BFP to GFP conversion by GRON, with or without zeocin/phleomycin, in BFP transgenic protoplasts (flow cytometry)", "type": "cell-based, Arabidopsis thaliana", "conditions": "250 and 1000 μg/ml, 90 min before GRON", "from_the_text": "Sommer et al., (Mol Biotechnol. 33:115-22, 2006) describes a reporter system for the detection of in vivo gene conversion that relies upon a single nucleotide change to convert between blue and green fluorescence in green fluorescent protein (GFP) variants. This reporter system was adapted for use in the following experiments using Arabidopsis thaliana as a model species in order to assess efficiency of GRON mediated conversion.\nIn short, for this and the subsequent examples an Arabidopsis thaliana line with multiple copies of a blue fluorescent protein gene was created by methods known to those skilled in the art (see, e.g., Clough and Brent, 1998). […]\nThe purpose of this series of experiments is to compare the conversion efficiencies of the phosphothioate (PS) labeled GRONs with 3PS moieties at each end of the GRON to 2′-O-Me or “2OMe” in the presence and absence of a member of the bleomycin family, Zeocin™ to induce DNA breaks. […] GRONs were delivered into Arabidopsis thaliana BFP protoplasts by PEG treatment and BFP to GFP conversion was determined at 24 h post treatment by cytometry. […]\nSeventy-two h after transfection, cells were analyzed by cytometry using the Attune® Acoustic Focusing cytometer (Applied Biosystems®) with excitation and detection of emission as appropriate for GFP. […]"}, "[2]": {"test_system": "blue fluorescent protein (BFP) gene", "experiment": "BFP to GFP conversion by GRON, with or without zeocin/phleomycin, in BFP transgenic protoplasts (flow cytometry)", "type": "cell-based, Arabidopsis thaliana"}, "bfp gene": {"test_system": "bfp gene", "experiment": "BFP to GFP conversion by CRISPR plasmid plus GRON in BFP transgenic protoplasts (flow cytometry)", "type": "cell-based, Arabidopsis thaliana", "conditions": "72 h", "description": "BFP transgenic Arabidopsis thaliana protoplasts derived from induced root tissue were seeded on a flat-bottom 96-well plate, at 250,000 cells per well at a cell density of 1×10^7 cells/ml. The CRISPR encoded plasmids contain the mannopine synthase (MAS) promoter driving the Cas9 coding sequence with an rbcSE9 terminator and the Arabidopsis U6 promoter driving the sgRNA with a poly-T10 terminator. The CRISPR plasmids along with GRON were introduced into protoplasts by PEG mediated delivery at a final concentration of 0.05 μg/μl and 0.16 μM respectively. Protoplasts were incubated in the dark at 23° C. for 72 hours, and then they were analyzed by flow cytometer in order to determine the percentage of GFP positive protoplasts within a given treatment.\nThe CRISPR consists of two components: the plant codon-optimized Streptococcus pyogenes Cas9 (SpCas9) and sgRNA both of which were expressed from the same plasmid. The sgRNA is a fusion of CRISPR RNA (crRNA) and trans-activating crRNA (tracrRNA). The crRNA region contains the spacer sequence used to guide the Cas9 nuclease to the BFP target gene (FIG. 3). 201-mer GRONs targeting BFP with or without wobble bases were used to determine their effect on the rate of BFP to GFP conversion.\n(§2) BFP transgenic Arabidopsis thaliana protoplasts derived from induced root tissue were seeded on a flat-bottom 96-well plate, at 250,000 cells per well at a cell density of 1×10^7 cells/ml. […] Protoplasts were incubated in the dark at 23° C. for 72 hours, and then they were analyzed by flow cytometer in order to determine the percentage of GFP positive protoplasts within a given treatment. […]\nas §2, with “cytometry” for “cytometer”"}, "accase gene": {"test_system": "accase gene", "experiment": "ACCase conversion in rice protoplasts (NGS)", "type": "cell-based, Oryza sativa"}},
  "note": "“Also recorded” adds a separate entry of the source. In the oligonucleotide strings, read from the 5' end, every base follows the letter of its sugar. An asterisk marks phosphorothioate; unmarked linkages are phosphodiester. Other units and linkages are bracketed, terminal groups are in braces. A string of capitals states the bases alone. d = 2'-deoxy (DNA)",
  "data": [
    {"molecule": "O=C(O)CNCP(=O)(O)O", "note": "[glyphosate]", "values": [
      {"measurement": "fresh weight of calli with T97I and P101A edits versus wild type calli", "setting": "flax calli", "result": "significantly higher"},
      {"measurement": "phenotype of wild type plants", "setting": "flax plants", "result": "wilted and necrotic phenotype typical of glyphosate toxicity"},
      {"measurement": "phenotype of plants with the edited EPSPS gene", "setting": "flax plants; Y23 / A23 plants", "result": "minimal phenotypic change"}
    ]},
    {"molecule": "Cc1c(N)nc([C@H](CC(N)=O)NC[C@H](N)C(N)=O)nc1C(=O)N[C@H](C(=O)N[C@H](C)[C@@H](O)[C@H](C)C(=O)N[C@H](C(=O)NCCC1=N[C@@H](c2nc(C(=O)NCCCCN=C(N)N)cs2)CS1)[C@@H](C)O)[C@@H](O[C@@H]1O[C@@H](CO)[C@@H](O)[C@H](O)[C@@H]1O[C@H]1O[C@H](CO)[C@@H](O)[C@H](OC(N)=O)[C@@H]1O)c1cnc[nH]1", "note": "[zeocin]", "values": [
      {"measurement": "effect of antibiotic pre-treatment on BFP to GFP gene editing", "setting": "[1]", "result": "increase in BFP to GFP gene editing"},
      {"measurement": "effect of zeocin on BFP to GFP conversion", "setting": "[2]; zeocin 1 mg/ml, 90 min on ice prior to PEG treatment with GRON", "result": "increased BFP to GFP conversion rates"}
    ]},
    {"molecule": "BFP/41/3PS: BFP GRON with three adjacent PS modifications at each end (sense dG*dC*dT*dGdAdAdGdCdAdCdTdGdCdAdCdGdCdCdGdTdAdGdGdTdAdAdAdCdGdTdGdGdTdCdAdCdGdAdGdGdGdT*dG*dG*dG)", "values": [
      {"measurement": "BFP to GFP conversion / editing, comparison in words", "setting": "bfp gene", "result": "more BFP to GFP precise scarless edits"}
    ]},
    {"molecule": "CG2: BFP antisense 41 nb 3PS modified (antisense dG*dC*dT*dGdAdAdGdCdAdCdTdGdCdAdCdGdCdCdGdTdAdGdGdTdGdAdAdGdGdTdGdGdTdCdAdCdGdA*dG*dG*dG)", "values": [
      {"measurement": "BFP to GFP conversion / editing, comparison in words", "setting": "bfp gene", "result": "more efficacious"}
    ]},
    {"molecule": "CG3: BFP sense 41 nb 3PS modified (sense CGCTCGTGACCACCTTCACCTACGGCGTGCAGTGCTTCAGC; linkages s3 o34 s3 (s phosphorothioate, o phosphodiester), sugars by position and methylation of C not given here)", "values": [
      {"measurement": "BFP to GFP conversion / editing, comparison in words", "setting": "bfp gene", "result": "no statistical difference"}
    ]},
    {"molecule": "phleomycin [reference compound]", "values": [
      {"measurement": "effect of antibiotic pre-treatment on BFP to GFP gene editing", "setting": "[1]", "result": "increase in BFP to GFP gene editing; also recorded: dose-dependent increase in GFP positive cells"},
      {"measurement": "number of GFP positive cells compared to the BFP/41/NT control", "setting": "[2]; phleomycin 10 μg/mL, GRON BFP/41, 24 h", "result": "no improvement"},
      {"measurement": "BFP to GFP conversion frequency", "setting": "[2]; phleomycin 1000 μg/mL pre-treatment 90 min, GRON BFP/41, 24 h", "result": 0.14, "unit": "%"}
    ]},
    {"molecule": "B1", "values": [
      {"measurement": "ACCase conversion", "setting": "accase gene; CRISPR-Cas plasmid plus GRON, 120 h", "result": 0.026, "unit": "%"},
      {"measurement": "ACCase conversion", "setting": "accase gene; GRON only, no CRISPR-Cas, 120 hours", "result": 0.002, "unit": "%"}
    ]}
  ]
}
